Experimental data from patent publication US20230364118A1, “RIBITOL TREATMENT” (priority 2020, published 2023).
Like-named read-outs stand apart in the source and are kept apart here.

Assay: 28-day repeat-dose oral toxicokinetics
Assay type: in vivo, CD-1 mouse
Conditions: for Tmax / Cmax / AUC(0-t): CD-1, mouse, plasma; for AUC(0-t): read-out: AUC0-24
Protocol: Toxicokinetics of ribitol was evaluated as part of the 28-day toxicology study in male and female CD-1 mice. […] Toxicokinetic animals were 12/sex in the control group and 48/sex/group in the treated groups. Blood samples were collected on Day 1 and Day 28 at pre-first dose, 0.5, 2, 4, 8 (prior to second dose), 8.5, 10, and 24 h.

[1] = both sexes, po, 0.5 g/kg, 0.5 g/kg/dose BID, Day 1, Mean of sexes
[2] = both sexes, po, 0.5 g/kg, 0.5 g/kg/dose BID, Day 28, Mean of sexes
[3] = both sexes, po, 1 g/kg, 1.0 g/kg/dose BID, Day 1, Mean of sexes
[4] = both sexes, po, 1 g/kg, 1.0 g/kg/dose BID, Day 28, Mean of sexes
[5] = both sexes, po, 1.5 g/kg, 1.5 g/kg/dose BID, Day 1, Mean of sexes
[6] = both sexes, po, 1.5 g/kg, 1.5 g/kg/dose BID, Day 28, Mean of sexes
[7] = female, po, 0.5 g/kg, 0.5 g/kg/dose BID, Day 1, Female
[8] = female, po, 0.5 g/kg, 0.5 g/kg/dose BID, Day 28, Female
[9] = female, po, 1 g/kg, 1.0 g/kg/dose BID, Day 1, Female
[10] = female, po, 1 g/kg, 1.0 g/kg/dose BID, Day 28, Female
[11] = female, po, 1.5 g/kg, 1.5 g/kg/dose BID (3.0 g/kg/day, NOAEL), Day 28, Female
[12] = female, po, 1.5 g/kg, 1.5 g/kg/dose BID, Day 1, Female
[13] = male, po, 0.5 g/kg, 0.5 g/kg/dose BID, Day 1, Male
[14] = male, po, 0.5 g/kg, 0.5 g/kg/dose BID, Day 28, Male
[15] = male, po, 1 g/kg, 1.0 g/kg/dose BID, Day 1, Male
[16] = male, po, 1 g/kg, 1.0 g/kg/dose BID, Day 28, Male
[17] = male, po, 1.5 g/kg, 1.5 g/kg/dose BID (3.0 g/kg/day, NOAEL), Day 28, Male
[18] = male, po, 1.5 g/kg, 1.5 g/kg/dose BID, Day 1, Male

Q: What does the source list for `OC[C@@H](O)[C@@H](O)[C@@H](O)CO` [ribitol, (2R,3s,4S)-Pentane-1,2,3,4,5-pentol]?
A: drug accumulation (after 28 days repeated oral administration, any dose level): no apparent ribitol drug accumulation; Tmax (both sexes, oral, post first dose and post second dose, Day 1 or Day 28): 0.5 h; Cmax [1]: 141 µg/mL; AUC(0-t) [1]: 337 µg·h/mL; Cmax [2]: 140 µg/mL; AUC(0-t) [2]: 422 µg·h/mL; Cmax [3]: 257 µg/mL; AUC(0-t) [3]: 540 µg·h/mL; Cmax [4]: 245 µg/mL; AUC(0-t) [4]: 806 µg·h/mL; Cmax [5]: 384 µg/mL; AUC(0-t) [5]: 1020 µg·h/mL; Cmax [6]: 336 µg/mL; AUC(0-t) [6]: 1090 µg·h/mL; Cmax [7]: 157 µg/mL; Tmax [7]: 8.5 h; AUC(0-t) [7]: 322 µg·h/mL; Cmax [8]: 141 µg/mL; Tmax [8]: 8.5 h; AUC(0-t) [8]: 393 µg·h/mL; Cmax [9]: 227 µg/mL; Tmax [9]: 8.5 h; AUC(0-t) [9]: 520 µg·h/mL; Cmax [10]: 252 µg/mL; Tmax [10]: 0.5 h; AUC(0-t) [10]: 794 µg·h/mL; Cmax [11]: 294 µg/mL; AUC(0-t) [11]: 839 µg·h/mL; Cmax [12]: 334 µg/mL; Tmax [12]: 8.5 h; AUC(0-t) [12]: 1070 µg·h/mL; Tmax (female, po, 1.5 g/kg, 1.5 g/kg/dose BID, Day 28, Female): 8.5 h; Cmax [13]: 124 µg/mL; Tmax [13]: 0.5 h; AUC(0-t) [13]: 351 µg·h/mL; Cmax [14]: 138 µg/mL; Tmax [14]: 0.5 h; AUC(0-t) [14]: 450 µg·h/mL; Cmax [15]: 286 µg/mL; Tmax [15]: 8.5 h; AUC(0-t) [15]: 559 µg·h/mL; Cmax [16]: 238 µg/mL; Tmax [16]: 8.5 h; AUC(0-t) [16]: 818 µg·h/mL; Cmax [17]: 377 µg/mL; AUC(0-t) [17]: 1340 µg·h/mL; Cmax [18]: 433 µg/mL; Tmax [18]: 8.5 h; AUC(0-t) [18]: 972 µg·h/mL; Tmax (male, po, 1.5 g/kg, 1.5 g/kg/dose BID, Day 28, Male): 8.5 h
